Laboratory results: US20210186999A1, “METHOD FOR TREATMENT OF CANCER” (National University of Ireland Galway, priority 2017, published 2021)

Legend:
[1] = test system: TNF-α+IL-1β treated MSCs co-cultured with activated T-cells; experiment: MSC : T-cell co-culture in mixed lymphocyte reactions (MLRs), flow cytometry; format: cell-based, BALB/c; details: MSCs cultured with 100 μM inhibitor for two successive passages; MLR co-culture 96 hrs; FIGS. 3(a)-3(c)
Description: Materials and Methods Four female BALB/c at approximately 5 to 7 weeks were euthanized and the femur and tibia was dissected and placed in a 50 ml tube with media or PBS. Using a forceps and scissors the bones were cleaned to remove muscles and snipped on both ends to plunge out the marrow into a Petri dish containing MSC medium. A 30G needle fitted on a 1 ml syringe was used to plunge out the marrow and repeated several times till the bones appeared white. The marrow was passed through a 40 μm sieve attached to a 50 ml tube and the sieve was washed twice with medium. Medium was changed, and a cell count was performed. 10 μl cells was mixed with 40 μl PBS and 10 μl 4% acetic acid and cell count was performed. Based on the count approximately 35-50 million cells were seeded per T175 cm flask or 1 animal per flask. After isolation and culturing the MSCs were extensively characterized in vitro before and after treatment with TNF-α+IL-1β.
Sialic acid content was assayed using lectin coupled flow cytometry. Biotin labelled SNA-I and MAL-II were used to detect a 2-6 sialic acid and a 2-3 sialic acid respectively. Sialyltransferase inhibition was carried out using 100 μM of 3Fax-Peracetyl Neu5Ac. […]
MSC and TNF-α+IL-1βMSC were co-cultured at different MSC: T-cell ratios for 96 hrs. T-cell proliferation, activation, death and differentiation were determined by flow cytometry.

[2] = test system: nitric oxide (NO), prostaglandin E2 (PGE2), IL-10 in MLR supernatant; experiment: ELISA and Griess assay of immunomodulatory molecules in supernatant of mixed lymphocyte reaction; format: cell-based, BALB/c; details: MSCs cultured with 100 μM inhibitor, FIGS. 4(a)-4(c)
Description: Sialic acid content was assayed using lectin coupled flow cytometry. Biotin labelled SNA-I and MAL-II were used to detect a 2-6 sialic acid and a 2-3 sialic acid respectively. Sialyltransferase inhibition was carried out using 100 μM of 3Fax-Peracetyl Neu5Ac. Cells were cultured in the presence of the inhibitor for two successive passages to ensure inhibition.
Both ELISA and the Griess assay were used to determine quantity of immunomodulatory molecules in the supernatant of mixed lymphocyte reaction experiments.

With COC(=O)C1(OC(C)=O)OC(C(OC(C)=O)C(COC(C)=O)OC(C)=O)C(NC(C)=O)C(OC(C)=O)C1F (stereo not drawn) [3Fax-Peracetyl Neu5Ac] the “proliferation of T-cells (CD4+, CD8+) in co-culture with inhibitor-treated MSCs” value [1] was “restored proliferation of T-cells”, the “suppression of activated T-cells by TNF-α+IL-1β treated MSCs exposed to the sialyltransferase inhibitor” value [1] was “not as effective at suppressing activated T-cells” and the “dependence of restored T-cell proliferation on NO, PGE2 and IL-10” value [2] was “independent of nitric oxide (NO), prostaglandin E2 (PGE2), and IL-10”.
